Patent US12031151B2, “Methods of improving protein titer in cell culture” (Regeneron Pharmaceuticals, Inc., priority 2021, dated 2024)

Tested on: protein titer of dupilumab production cell culture
Assay: LC-MS analysis of HEPES related impurities and titer correlation evaluation across cell culture production runs
Type: cell-based
Details: for Pearson Correlation Coefficient, 5 HEPES salt lots / Pearson Correlation Coefficient, 7 CDM1B lots (Geel) / Pearson Correlation Coefficient, 20 CDM1B lots (Rens): correlation of impurity abundance with final titer; for Pearson Correlation Coefficient, 7 CDM1B lots (Geel): 7 CDM1B media lots; for Pearson Correlation Coefficient, 20 CDM1B lots (Rens): 20 CDM1B media lots; for correlation of impurity abundance with titer: dupilumab production runs, Site 1 (20 runs) and Site 2 (7 runs)
Method: ANOVA analysis of the lot genealogy of 53 different components of a chemically defined media was performed between lots utilized in “high titer” performing cell culture runs and “low titer” performing cell culture runs. HEPES acid and salt were identified as “high risk” components, showing the strongest correlation with final titer (the correlation was stronger than the correlation between the titer and media as whole). HEPES also was identified as a “high risk component” in an independent risk-based analysis that considered the weight fractions of components in the media formulation, components' COA purity and their manufacturing methods.
Following identification of HEPES as a “high risk” component with strong correlation to final titer, an analysis of the chemical composition of HEPES buffer lots was performed, including LC-MS and titer correlations evaluations.
Large scale production runs were performed at multiple sites to produce dupilumab. […] Based on the findings, and in accordance with the inventions, improved protein titer may be obtained by using media having reduced HEPES related impurities, in accordance with the inventions.
FIG. 1 illustrates the relation between relative amounts of HEPES+[O2]−[H2] and protein titer. […] Summary of fit data is shown below each graph of FIGS. 2A and 2B.
FIG. 3 illustrates the relation between relative amounts of HEPES−[CH4] and protein titer. […] Summary of fit data is shown below each graph of FIGS. 4A and 4B.

Row | Structure (SMILES) | Pearson Correlation Coefficient, 5 HEPES salt lots | Pearson Correlation Coefficient, 7 CDM1B lots (Geel) | Pearson Correlation Coefficient, 20 CDM1B lots (Rens) | correlation of impurity abundance with titer
1 | O=S(=O)(O)CC(O)O [2,2-Dihydroxyethane-sulfonic acid] | −0.85 | – | – | –
2 | CC(=O)NCS(=O)(=O)O [Acetamidomethane-sulfonic acid] | −0.81 | −0.34 | −0.78 | –
3 | O=CN(CCO)CCN(C=O)CCS(=O)(=O)O [HEPES+[O2]−[H2]] | −0.82 | −0.68 | −0.77 | negative correlation with titer
4 | O=CN1CCN(CCS(=O)(=O)O)CC1 [HEPES−[CH4]] | −0.85 | −0.83 | −0.68 | negative correlation with titer
5 | C=CS(=O)(=O)O [Vinylsulfonic acid] | −0.60 | 0.41 | 0.16 | –
